Experimental data taken from US9402848B2, “Method for treating pain syndrome and other disorders” (VM Therapeutics LLC, priority 2008, dated 2016).

Columns and labels:
[1] = test system: Formalin induced pain in rat animal models of hyperalgesia; assay: Rat Formalin Paw Test; assay type: in vivo; details: FIG. 1
Procedure: Rat Formalin Paw Test (in Vivo Assay): Compounds were assessed for their ability to inhibit the behavioral response evoked by an injection of formalin (50 μl of 5% formalin). A metal band was affixed to the left hind paw of male Holtzman rats (225-250 g, Harlan Industries, Indianapolis Ind.) and each rat was conditioned to the band for 60 min within a plastic cylinder (15 cm diameter). Rats were dosed with either vehicle, positive control compound or a test compound either before (local) or after (systemic) formalin challenge. For local administration, compounds were prepared in either a 1:1.5 vehicle of saline (in mL) and (D)- or (L)-Tartaric acid (in mg), or a 1:1:6 vehicle of DMA (N,N-Dimethylacetamide), Tween 80 and saline, and injected […] into the dorsal surface of the right hind paw of the rat 60 min prior to formalin. The number of flinches was counted continuously for 60 min using an automated nociception analyzer (UCSD Anesthesiology Research, San Diego, Calif.). Statistical significance was determined by comparing the total flinches detected in the early (0-10 min, Phase I) and late (11-60 min) phase with an unpaired t-test. […]

[2] = test system: Carrageenan-induced pain in rat animal model of hyperalgesia; assay: Carrageenan-induced pain in rat animal model of hyperalgesia; assay type: in vivo; details: FIG. 2 and FIG. 3

Cc1nc2ccccn2c(=O)c1CCN1CCC(C(=O)c2ccc(F)cc2)CC1 [Compound 10, 3-(2-{4-[(4-fluorophenyl)carbonyl]piperidin-1-yl}ethyl)-2-methyl-4H-pyrido[1,2-a]pyrimidin-4-one]
reduction of Formalin induced pain [1]: reduction of Formalin induced pain | reduction of Carrageenan-induced pain [2]: reduction of Carrageenan-induced pain
